Measurements from PubChem BioAssay (NCI).
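Each compound was tested at five concentrations against cells in 96-well plates for 48 hours. The concentration for full growth arrest is given as TGI.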

Legend:
Test in all cases: NCI-60 cell line screen, 48 h
786-0 renal = tested on: 786-0 renal
A498 renal = tested on: A498 renal
A549 NSCLC = tested on: A549 NSCLC
ACHN renal = tested on: ACHN renal
BT-549 breast = tested on: BT-549 breast
CAKI-1 renal = tested on: CAKI-1 renal
CCRF-CEM leukemia = tested on: CCRF-CEM leukemia
COLO 205 colon = tested on: COLO 205 colon
DU-145 prostate = tested on: DU-145 prostate
EKVX NSCLC = tested on: EKVX NSCLC
HCC-2998 colon = tested on: HCC-2998 colon
HCT-116 colon = tested on: HCT-116 colon
HCT-15 colon = tested on: HCT-15 colon
HOP-62 NSCLC = tested on: HOP-62 NSCLC
HS 578T breast = tested on: HS 578T breast
HT29 colon = tested on: HT29 colon
IGROV1 ovarian = tested on: IGROV1 ovarian
K-562 leukemia = tested on: K-562 leukemia
KM12 colon = tested on: KM12 colon
LOX IMVI melanoma = tested on: LOX IMVI melanoma
M14 melanoma = tested on: M14 melanoma
MALME-3M melanoma = tested on: MALME-3M melanoma
MCF7 breast = tested on: MCF7 breast
MDA-MB-231 breast = tested on: MDA-MB-231 breast
MDA-MB-435 = tested on: MDA-MB-435
MDA-N = tested on: MDA-N
MOLT-4 leukemia = tested on: MOLT-4 leukemia
NCI-H226 lung = tested on: NCI-H226 lung
NCI-H23 lung = tested on: NCI-H23 lung
NCI-H460 lung = tested on: NCI-H460 lung
NCI-H522 lung = tested on: NCI-H522 lung
NCI/ADR-RES ovarian = tested on: NCI/ADR-RES ovarian
OVCAR-3 ovarian = tested on: OVCAR-3 ovarian
OVCAR-4 ovarian = tested on: OVCAR-4 ovarian
OVCAR-5 ovarian = tested on: OVCAR-5 ovarian
OVCAR-8 ovarian = tested on: OVCAR-8 ovarian
PC-3 prostate = tested on: PC-3 prostate
RXF 393 renal = tested on: RXF 393 renal
SF-268 CNS = tested on: SF-268 CNS
SF-295 CNS = tested on: SF-295 CNS
SF-539 CNS = tested on: SF-539 CNS
SK-MEL-2 melanoma = tested on: SK-MEL-2 melanoma
SK-MEL-28 melanoma = tested on: SK-MEL-28 melanoma
SK-MEL-5 melanoma = tested on: SK-MEL-5 melanoma
SK-OV-3 ovarian = tested on: SK-OV-3 ovarian
SN12C renal = tested on: SN12C renal
SNB-19 CNS = tested on: SNB-19 CNS
SNB-75 CNS = tested on: SNB-75 CNS
SR leukemia = tested on: SR leukemia
SW-620 colon = tested on: SW-620 colon
T-47D breast = tested on: T-47D breast
TK-10 renal = tested on: TK-10 renal
U251 CNS = tested on: U251 CNS
UACC-257 melanoma = tested on: UACC-257 melanoma
UACC-62 melanoma = tested on: UACC-62 melanoma
UO-31 renal = tested on: UO-31 renal
HL-60(TB) leukemia = tested on: HL-60(TB) leukemia
HOP-92 NSCLC = tested on: HOP-92 NSCLC
RPMI-8226 leukemia = tested on: RPMI-8226 leukemia

Measured: TGI

CCCSc1cc(Cl)c(C)cc1S(=O)(=O)n1cc[nH]c1=O
not listed: HL-60(TB) leukemia | HOP-92 NSCLC | RPMI-8226 leukemia
> 100 µM: all other assays above

O=C(NNC(=S)Nc1ccccc1)C12CC3CC(CC(C3)C1)C2
> 81.6 µM: K-562 leukemia
> 91.4 µM: A498 renal
37.7 µM: HL-60(TB) leukemia
> 94.3 µM: HCT-116 colon
> 86.9 µM: SK-MEL-2 melanoma
> 73.2 µM: COLO 205 colon
> 67.7 µM: OVCAR-3 ovarian
60.8 µM: BT-549 breast
67 µM: M14 melanoma
42.6 µM: SK-MEL-5 melanoma
59.7 µM: NCI/ADR-RES ovarian
> 95.7 µM: HCC-2998 colon
> 53.5 µM: CCRF-CEM leukemia
> 92.9 µM: SNB-75 CNS
> 91.9 µM: LOX IMVI melanoma
60 µM: MOLT-4 leukemia
22.5 µM: SR leukemia
> 86.6 µM: NCI-H226 lung
95.8 µM: HOP-92 NSCLC
> 100 µM: all other assays above

O=C(O)CN1CCNCCN(CC(=O)O)CC1
> 68.7 µM: A498 renal
30.7 µM: NCI-H522 lung
39.5 µM: SK-MEL-5 melanoma
> 80 µM: A549 NSCLC
> 29.4 µM: SR leukemia
7.3 µM: NCI/ADR-RES ovarian
> 28.6 µM: HL-60(TB) leukemia
20.7 µM: NCI-H23 lung
11.6 µM: OVCAR-8 ovarian
> 42.9 µM: NCI-H226 lung
55.7 µM: HCC-2998 colon
6.12 µM: COLO 205 colon
98.4 µM: SK-OV-3 ovarian
> 90.6 µM: TK-10 renal
> 21.4 µM: HT29 colon
> 64.4 µM: NCI-H460 lung
> 37.3 µM: HCT-116 colon
> 100 µM: all other assays above
